The numbers were not newly measured in patent US6943021B2, “Three dimensional vaginal tissue model containing immune cells” (MatTek Corporation, priority 2002, dated 2005), which cites them from elsewhere.

The subject of this data set is ectocervical-vaginal tissue.

Nonoxynol-9 [N-9]: under “finite segment of the population (Reckart 1992)”, the ectocervical-vaginal irritation entry was “cause ectocervical-vaginal irritation”. Further, the “volunteers who experienced ectocervical-vaginal irritation” value (study evaluating N-9 as an HIV microbicide (Stafford et al. 1998)) is given as 25%.
